Results from paper PMC3445454, “Broad and Cross-Clade CD4^+ T-Cell Responses Elicited by a DNA Vaccine Encoding Highly Conserved and Promiscuous HIV-1 M-Group Consensus Peptides” (PLoS ONE, 2012).
Numbering of substitutions follows the chain as printed.

Columns and labels:
Assay in all cases: biochemical
Assay type in all cases: binding
HLA-DR DRB1*03:01 = HLA-DR DRB1*03:01 (Homo sapiens, UniProt P01903+P01911, A100K/A102G/A103R/A169T/F55Y/I96L/K41T/L162R/M171V/P40S/Q125H/Q178H/Q39Y/R42S/S66N/T106N/T262R/W38E/Y61H)
HLA-DR DRB1*04:05 = HLA-DR DRB1*04:05 (Homo sapiens, UniProt P01903+P01911, A100R/A169T/D86S/F76Y/I96L/K127E/L162R/M171V/N62H/P40V/Q125Y/R42H/S133A/S149N/S66Y/V115G/V209L/W38E)
HLA-DR DRB1*09:01 = HLA-DR DRB1*09:01 (Homo sapiens, UniProt P01903+P01911, A100R/A103E/D57H/D86V/F55Y/F60I/F76Y/I96F/K127E/L162R/M171V/P40D/Q125H/Q99R/R33Q/R42F/S133A/S66N/T210M/V115G/W38K/Y107V/Y59G/Y89S)
HLA-DR DRB5*01:01 = HLA-DR DRB5*01:01 (Homo sapiens, UniProt P01903+Q30154); conditions: read-out: Binding capacity/IC50 (nM) DRB5*01:01
[1] = target: T1, HLA-DP DPA1*01:03/DPB1*02:01 (Homo sapiens, UniProt P04440+P20036, A65V/A84D/A85E/K98E); conditions: read-out: Binding capacity/IC50 (nM) DPA1*01:03 DPB1*02:01
T1 sequence (P20036 29-260): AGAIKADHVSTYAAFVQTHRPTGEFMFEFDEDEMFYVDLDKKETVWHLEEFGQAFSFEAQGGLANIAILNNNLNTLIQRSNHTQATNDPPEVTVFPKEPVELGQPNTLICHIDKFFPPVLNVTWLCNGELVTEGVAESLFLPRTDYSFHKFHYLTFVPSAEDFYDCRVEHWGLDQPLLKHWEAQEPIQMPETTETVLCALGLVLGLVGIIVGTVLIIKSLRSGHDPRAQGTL
T1 sequence (P04440 30-258 A65V/A84D/A85E/K98E): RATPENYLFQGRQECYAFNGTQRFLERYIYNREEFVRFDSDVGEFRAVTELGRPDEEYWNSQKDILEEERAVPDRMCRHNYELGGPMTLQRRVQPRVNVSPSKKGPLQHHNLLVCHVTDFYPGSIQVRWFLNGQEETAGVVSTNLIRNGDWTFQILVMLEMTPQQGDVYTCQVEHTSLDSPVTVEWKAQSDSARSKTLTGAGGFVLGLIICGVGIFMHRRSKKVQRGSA

[2] = target: T2, HLA-DP DPA1*02:01/DPB1*05:01 (Homo sapiens, UniProt P04440+P20036, A65V/A84E/F191V/F64L/G113D/G114E/K142R/L158P/M116V/M62Q/P115A/Q81R/R125K/T114A/T199I/T259P/V234M); conditions: read-out: Binding capacity/IC50 (nM) DPA1*02:01 DPB1*05:01
T2 sequence (P20036 29-260 A42M/M62Q/Q81R/T114A/K142R/L158P/F191V/T259P): T1 sequence (P20036 29-260) with A14M, M34Q, Q53R, T86A, K114R, L130P, F163V, T231P
T2 sequence (P04440 30-258 F64L/A65V/A84E/G113D/G114E/P115A/M116V/R125K/T199I/V234M): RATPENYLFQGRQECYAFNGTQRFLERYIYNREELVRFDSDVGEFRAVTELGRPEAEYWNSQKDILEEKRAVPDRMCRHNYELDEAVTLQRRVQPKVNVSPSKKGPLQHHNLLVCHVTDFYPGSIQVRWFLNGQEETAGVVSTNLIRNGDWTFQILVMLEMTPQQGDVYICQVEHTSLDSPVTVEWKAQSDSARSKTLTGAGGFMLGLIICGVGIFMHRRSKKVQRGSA

HLA-DR DRB1*15:01 = HLA-DR DRB1*15:01 (Homo sapiens, UniProt P01903+P01911); conditions: read-out: Binding capacity/IC50 (nM) DRB1*15:01
HLA-DR DRB1*13:02 = HLA-DR DRB1*13:02 (Homo sapiens, UniProt P01903+P01911, A100E/A169T/K41T/L162R/M171V/P40S/Q125H/Q178H/Q39Y/Q99D/R42S/S66N/T262R/V115G/W38E/Y61H)
HLA-DR DRB1*11:01 = HLA-DR DRB1*11:01 (Homo sapiens, UniProt P01903+P01911, A100R/A169T/A87E/I96F/K41T/L162R/M171V/P40S/Q125H/Q178H/Q39Y/Q99D/R42S/S66Y/T262R/V115G/W38E)
HLA-DR DRB3*02:02 = HLA-DR DRB3*02:02 (Homo sapiens, UniProt P01903+P79483, A212P/D57E/F66Y/L67A/R103Q/R218S/R40L/S89Y/T80R/V86D/Y55F/Y59H); conditions: read-out: Binding capacity/IC50 (nM) DRB3*02:02
[3] = target: T3, HLA-DP DPA1*01:03/DPB1*03:01 (Homo sapiens, UniProt P04440+P20036, A65V/A84D/A85E/E86D/F38Y/G113D/G114E/G40L/I94L/L37V/M105V/M116V/P115A/R125K/T199I); conditions: read-out: Binding capacity/IC50 (nM) DPA1*01:03 DPB1*03:01
T3 sequence (P20036 29-260): T1 sequence (P20036 29-260)
T3 sequence (P04440 30-258 L37V/F38Y/G40L/A65V/A84D/A85E/E86D/I94L/M105V/G113D/G114E/P115A/M116V/R125K/T199I): T2 sequence (P04440 30-258 F64L/A65V/A84E/G113D/G114E/P115A/M116V/R125K/T199I/V234M) with L8V, F9Y, G11L, L35F, E55D, A56E, E57D, I65L, M76V, M205V

HLA-DR DRB3*01:01 = HLA-DR DRB3*01:01 (Homo sapiens, UniProt P01903+P79483); conditions: read-out: Binding capacity/IC50 (nM) DRB3*01:01

Chain of HLA-DR DRB1*13:02 (P01903 26-254 limits assumed, other chains not shown): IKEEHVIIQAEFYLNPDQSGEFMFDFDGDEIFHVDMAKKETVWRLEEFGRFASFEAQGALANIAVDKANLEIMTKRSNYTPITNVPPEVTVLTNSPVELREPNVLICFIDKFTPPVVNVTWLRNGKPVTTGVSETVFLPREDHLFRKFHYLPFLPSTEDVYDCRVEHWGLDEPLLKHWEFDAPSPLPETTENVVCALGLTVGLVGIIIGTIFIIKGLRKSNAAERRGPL
Chain of HLA-DR DRB1*11:01 (P01903 26-254 limits assumed, other chains not shown): as above
Chain of HLA-DR DRB1*03:01 (P01903 26-254 limits assumed, other chains not shown): as above
Chain of HLA-DR DRB3*02:02 (P01903 26-254 limits assumed): as the sequence (P01903 26-254 limits assumed, other chains not shown) above
Chain of HLA-DR DRB3*02:02 (P79483 30-266 R40L/Y55F/D57E/Y59H/F66Y/L67A/T80R/V86D/S89Y/R103Q/A212P/R218S limits assumed): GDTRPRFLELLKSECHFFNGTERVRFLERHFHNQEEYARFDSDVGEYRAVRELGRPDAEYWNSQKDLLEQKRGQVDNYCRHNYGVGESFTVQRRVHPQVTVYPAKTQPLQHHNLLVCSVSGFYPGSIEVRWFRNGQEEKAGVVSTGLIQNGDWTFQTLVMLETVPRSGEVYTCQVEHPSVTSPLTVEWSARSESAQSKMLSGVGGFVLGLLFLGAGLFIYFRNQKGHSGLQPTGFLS

## CC[C@H](C)[C@H](NC(=O)[C@H](C)NC(=O)[C@H](CCCCN)NC(=O)[C@H](CCCCN)NC(=O)CNC(=O)[C@H](CS)NC(=O)[C@@H](NC(=O)[C@H](CCC(=O)O)NC(=O)[C@@H](NC(=O)[C@H](CC(C)C)NC(=O)[C@@H](NC(=O)[C@H](CCC(N)=O)NC(=O)[C@H](CC(=O)O)NC(=O)[C@H](Cc1ccc(O)cc1)NC(=O)[C@H](CCC(N)=O)NC(=O)[C@H](CCCNC(=N)N)NC(=O)[C@@H](NC(=O)[C@H](CCCCN)NC(=O)[C@@H](NC(=O)[C@@H](N)Cc1ccccc1)[C@@H](C)CC)C(C)C)[C@@H](C)CC)[C@@H](C)CC)[C@@H](C)CC)C(=O)NCC(=O)N[C@H](C(=O)N[C@H](C(N)=O)C(C)C)[C@@H](C)O [protease(53-75)]
HLA-DR DRB1*03:01
  IC50: 347 nM
HLA-DR DRB1*04:05
  IC50: 282 nM
HLA-DR DRB1*09:01
  IC50: 234 nM
HLA-DR DRB5*01:01
  IC50: 93 nM
[1]
  IC50: 41 nM
[2]
  IC50: 53 nM
HLA-DR DRB1*15:01
  IC50: 111 nM
HLA-DR DRB1*13:02
  IC50: 4080 nM
HLA-DR DRB1*11:01
  IC50: 1360 nM
HLA-DR DRB3*02:02
  IC50: 9690 nM
[3]
  IC50: 9.4 nM
HLA-DR DRB3*01:01
  IC50: 545 nM

## CC(C)C[C@H](NC(=O)[C@H](CCCCN)NC(=O)[C@@H](NC(=O)[C@H](CC(C)C)NC(=O)[C@@H]1CCCN1C(=O)[C@@H]1CCCN1C(=O)[C@@H](NC(=O)[C@H](CC(N)=O)NC(=O)[C@@H](NC(=O)[C@H](Cc1ccccc1)NC(=O)[C@H](CCC(=O)O)NC(=O)[C@H](Cc1c[nH]c2ccccc12)NC(=O)[C@@H](N)CCC(=O)O)C(C)C)[C@@H](C)O)C(C)C)C(=O)N[C@@H](Cc1c[nH]c2ccccc12)C(=O)N[C@@H](Cc1ccc(O)cc1)C(N)=O [RT(413-427)]
HLA-DR DRB1*03:01
  IC50: 469 nM
HLA-DR DRB1*04:05
  IC50: 78 nM
HLA-DR DRB1*09:01
  IC50: 57 nM
HLA-DR DRB5*01:01
  IC50: 14 nM
[1]
  IC50: 639 nM
[2]
  IC50: 2820 nM
HLA-DR DRB1*15:01
  IC50: 329 nM
HLA-DR DRB1*13:02
  IC50: 2220 nM
HLA-DR DRB1*11:01
  IC50: 312 nM
HLA-DR DRB3*02:02
  IC50: 4.4 nM
[3]
  IC50: 5710 nM
HLA-DR DRB3*01:01
  IC50: 2390 nM
